Experimental data from patent US3991210A, “Acetamidine urinary antiseptics” (The Dow Chemical Company, priority 1975, dated 1976).
Structures can show the parent of a compound that is named as a salt.

Key:
Escherichia coli = assay: Antimicrobial activity of urine collected from mice after oral dosing, against Escherichia coli; format: in vivo; for urinary antiseptic activity, EC: key: +: urinary antiseptic activity and inhibition of microbial growth being observed; O: no urinary antiseptic activity and no inhibition of microbial growth are observed
Method: (§1) Separate groups of mice are fasted overnight, but are provided with water ad libitum prior to oral administration of a substituted amidine test compound. […] Urine is collected in sterile containers at intervals over the period from 1 to 24 hours after administration of the test compound. The collected urine is assayed for antimicrobial activity against Escherichia coli, Pseudomonas aeruginosa and a Proteus species, either Proteus vulgaris or Proteus mirabilis. Urine samples collected from the separate groups of mice administered one of 2-(4-chlorophenyl)acetamidine hydrochloride, 2-(4-bromophenyl)-acetamidinehydrochloride, 2-(4-chlorophenyl)acetamidoxime hydrochloride and 2-(4-bromophenyl)acetamidoxime hydrochloride are found to be active against all three test organisms.
(§2) The procedure of Example 1 is repeated, employing the substituted amidine compound 2-(4-bromophenyl)-acetamidine hydrochloride, and the known antiseptics gentamicin and nalidixic acid as test compounds. […]

Pseudomonas aeruginosa = assay: Antimicrobial activity of urine collected from mice after oral dosing, against Pseudomonas aeruginosa; format: in vivo; details: for antimicrobial activity of urine against Pseudomonas: 60 mg/kg, similar operations; for antimicrobial activity of urine against Pseudomonas aeruginosa: oral, 50 mg/kg, urine collected 1 to 24 hours
Method: as §1, §2

[1] = system: Proteus species, either Proteus vulgaris or Proteus mirabilis; assay: Antimicrobial activity of urine collected from mice after oral dosing, against a Proteus species (Example 1); format: in vivo, Proteus vulgaris or Proteus mirabilis (urine from mice); details: for antimicrobial activity of urine against Proteus: 60 mg/kg, similar operations; for antimicrobial activity of urine against Proteus species: oral, 50 mg/kg, urine collected 1 to 24 hours
Method: as §1

Proteus vulgaris = assay: Antimicrobial activity of urine collected from mice after oral dosing, against Proteus vulgaris (Example 2); format: in vivo; details: single oral dose 56.2 mg/kg; note: key: +: urinary antiseptic activity and inhibition of microbial growth being observed; O: no urinary antiseptic activity and no inhibition of microbial growth are observed
Method: Separate groups of mice are fasted overnight, but are provided with water ad libitum prior to oral administration of a substituted amidine test compound. The test compounds are administered orally at a dosage rate of 50 milligrams of test compound per kilogram of animal body weight in an aqueous carrier. Urine is collected in sterile containers at intervals over the period from 1 to 24 hours after administration of the test compound. The collected urine is assayed for antimicrobial activity against Escherichia coli, Pseudomonas aeruginosa and a Proteus species, either Proteus vulgaris or Proteus mirabilis. Urine samples collected from the separate groups of mice administered one of 2-(4-chlorophenyl)acetamidine hydrochloride, 2-(4-bromophenyl)-acetamidinehydrochloride, 2-(4-chlorophenyl)acetamidoxime hydrochloride and 2-(4-bromophenyl)acetamidoxime hydrochloride are found to be active against all three test organisms.
The procedure of Example 1 is repeated, employing the substituted amidine compound 2-(4-bromophenyl)-acetamidine hydrochloride, and the known antiseptics gentamicin and nalidixic acid as test compounds. Each test compound is administered in a single oral dose of 56.2 milligrams per kilogram; and separate urine samples are separately collected and assayed at intervals of 1, 4 and 24 hours after administration.

Proteus mirabilis = Proteus mirabilis urinary tract infection in Holtzman rats (Example 5); format: in vivo; details: 100 mg/kg, PO
Excerpt: Several groups of Wistar rats are surgically prepared and given a urinary tract infection by injection into the lumen of the bladder of 0.1 milliliter of a brain-heart infusion broth culture of Proteus mirabilis, in a procedure similar to that of Miraglia, Transact. N.Y. Acad. Sc. 32, 337 (1970). One group is similarly prepared surgically, but is not infected with the test organism, providing an operated, non-infected control group. Three hours after the surgical operations are complete, the animals in three of the groups (the test groups) are orally administered 100 milligrams per kilogram of nalidixic acid, or 2-(4-bromophenyl)acetamidine hydrochloride at a dosage rate of 50 or 100 milligrams per kilogram. A fourth group is not administered any test compound to serve as an infected control group.
The animals in each group are weighed daily and the test compounds are administered to the test groups daily at the same dosage rate for a total of 14 days. At the end of the 14 day test period, the animals are sacrificed. Swabs of the kidney pelvis and samples of bladder urine are obtained and examined by bacteriological culture techniques, and pathological examinations are carried out.
The operations of Example 4 are repeated using six Holtzman rats per group and using nitrofurantoin instead of nalidixic acid.

[2] = oral, 50 mg/kg, urine collected 1 to 24 hours

| Molecule | antimicrobial activity of urine against E. coli (Escherichia coli; 60 mg/kg, similar operations) | antimicrobial activity of urine against Pseudomonas (Pseudomonas aeruginosa) | antimicrobial activity of urine against Proteus [1] | antimicrobial activity of urine against E. coli (Escherichia coli; [2]) | antimicrobial activity of urine against Pseudomonas aeruginosa (Pseudomonas aeruginosa) | antimicrobial activity of urine against Proteus species [1] | further results |
| --- | --- | --- | --- | --- | --- | --- | --- |
| Cl.NC(Cc1ccc([N+](=O)[O-])cc1)=NO [2-(4-nitrophenyl)acetamidoxime hydrochloride, reference compound] | effective against E. coli | not against the Pseudomonas or Proteus test organisms | not against the Pseudomonas or Proteus test organisms |  |  |  |  |
| NC(Cc1ccc(Cl)cc1Cl)=NO [2-(2,4-dichlorophenylacetamidoxime hydrochloride, reference compound] | ineffective | ineffective | ineffective |  |  |  |  |
| Cl.NC(Cc1ccc(Br)cc1)=NO [2-(4-bromophenyl)acetamidoxime hydrochloride] |  |  |  | active | active | active |  |
| gentamicin |  |  |  |  |  |  | urinary antiseptic activity, EC (Escherichia coli; single oral dose 56.2 mg/kg, urine at 1 hour): +; urinary antiseptic activity, PV (Proteus vulgaris; urine at 1 hour): +; urinary antiseptic activity, PV (Proteus vulgaris; urine at 4 hours): + |
| Cl.N=C(N)Cc1ccc(Cl)cc1 [2-(4-chlorophenyl)acetamidine hydrochloride] |  |  |  | active | active | active |  |
| Cl.NC(Cc1ccc(Cl)cc1)=NO [2-(4-chlorophenyl)acetamidoxime hydrochloride] |  |  |  | active | active | active |  |
| NC(Cc1ccccc1)=NO [2-phenylacetamidioxime hydrochloride, reference compound] | ineffective | ineffective | ineffective |  |  |  |  |
| O=C1CN(/N=C/c2ccc([N+](=O)[O-])o2)C(=O)N1 [Nitrofurantoin, nitrofurantoin, reference compound] |  |  |  |  |  |  | Percent Infection (percent of surviving rats with Proteus infection of any degree) (Proteus mirabilis): 33.0%; Percent Pathology (percent total pathology signs observed over total possible observations times 100) (Proteus mirabilis): 13.6%; Percent Weight Gain (Proteus mirabilis): 16.9%; Percent Weight Gain, excluding one rat with unexplained severe weight loss (Proteus mirabilis; excluding one rat): 20.7% |
| Cl.N=C(N)COc1ccc(Cl)cc1 [2-(4-chlorophenoxy)acetamidine hydrochloride, reference compound] | ineffective | ineffective | ineffective |  |  |  |  |
